According to PubChem BioAssay (NCI):
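Cells were grown in 96-well plates and exposed to each compound for 48 hours at five concentrations; endpoints were interpolated linearly between bracketing concentrations, or set to the highest concentration if not reached. GI50: concentration for 50% inhibition of growth. TGI: total growth inhibition.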

How the values were obtained:
Assay in all cases: DTP human tumour cell line panel, 48 h
SK-MEL-28 melanoma = test system: SK-MEL-28 melanoma
K-562 leukemia = test system: K-562 leukemia
HCT-15 colon = test system: HCT-15 colon
MOLT-4 leukemia = test system: MOLT-4 leukemia
A549 NSCLC = test system: A549 NSCLC
OVCAR-4 ovarian = test system: OVCAR-4 ovarian
CCRF-CEM leukemia = test system: CCRF-CEM leukemia
A498 renal = test system: A498 renal
HCT-116 colon = test system: HCT-116 colon
TK-10 renal = test system: TK-10 renal

| SMILES | GI50 (SK-MEL-28 melanoma) | TGI (SK-MEL-28 melanoma) | GI50 (K-562 leukemia) | TGI (K-562 leukemia) | GI50 (HCT-15 colon) | TGI (HCT-15 colon) | GI50 (MOLT-4 leukemia) | TGI (MOLT-4 leukemia) | GI50 (A549 NSCLC) | TGI (A549 NSCLC) | GI50 (OVCAR-4 ovarian) | TGI (OVCAR-4 ovarian) | GI50 (CCRF-CEM leukemia) | TGI (CCRF-CEM leukemia) | GI50 (A498 renal) | TGI (A498 renal) | GI50 (HCT-116 colon) | TGI (HCT-116 colon) | GI50 (TK-10 renal) | TGI (TK-10 renal) |
| --- | --- | --- | --- | --- | --- | --- | --- | --- | --- | --- | --- | --- | --- | --- | --- | --- | --- | --- | --- | --- |
| O=C(Nc1ccc(Cl)cc1)Nc1nccs1 | 13.8 µM | > 100 µM | 0.5 µM | > 100 µM | 0.46 µM | > 100 µM | 4.8 µM | 84.2 µM | 0.775 µM | > 100 µM | 8.38 µM | > 100 µM | 1.93 µM | 62 µM | 0.518 µM | 16.9 µM | 0.49 µM | 52.8 µM | 10.2 µM | 93.1 µM |
| COc1ccc(-c2ccc(NNC(=O)c3ccc(F)cc3)nn2)cc1OC | > 100 µM | > 100 µM | 58.7 µM | > 100 µM | 65.5 µM | > 100 µM | 40.6 µM | > 100 µM | 99.5 µM | > 100 µM | 55.3 µM | > 100 µM | 38 µM | > 100 µM | > 100 µM | > 100 µM | > 100 µM | > 100 µM | > 100 µM | > 100 µM |
| Cc1ccc(C)c(N2C(=O)C(=O)C(c3nc4ccccc4o3)/C(=N\NC(=O)c3ccccc3O)C2=O)c1 (stereo not given) |  | > 100 µM |  | 85.6 µM |  | > 100 µM |  | 52.6 µM |  | > 100 µM |  | 69.6 µM |  | 42.1 µM |  | 76.8 µM |  | 63.6 µM |  | > 100 µM |
| O=C1CC2CCN(C(=O)c3ccccc3)CC2CCN1 (stereo not given) |  | > 100 µM |  | > 100 µM |  | > 100 µM |  | > 100 µM |  | > 100 µM |  | > 100 µM |  | > 100 µM |  | > 100 µM |  | > 100 µM |  | > 100 µM |
| N#CC(C#N)=C1CCCOc2c1ccc1ccccc21 | > 100 µM | > 100 µM | 20.4 µM | 43.5 µM | > 100 µM | > 100 µM | 19.5 µM | 51 µM | > 100 µM | > 100 µM | > 100 µM | > 100 µM | 23 µM | 63.7 µM | 1.84 µM | 4.89 µM | > 100 µM | > 100 µM | 42.9 µM | > 100 µM |
| c1ccc2c(c1)c1ccccc1c1ccccc21 | > 100 µM | > 100 µM | > 100 µM | > 100 µM | > 100 µM | > 100 µM | 77.3 µM | > 100 µM | > 100 µM | > 100 µM | > 100 µM | > 100 µM | > 100 µM | > 100 µM | > 100 µM | > 100 µM | > 100 µM | > 100 µM | > 100 µM | > 100 µM |
| NC(=O)c1cn(Cc2ccccc2)c(=O)n1Cc1ccccc1 |  | > 100 µM |  | > 100 µM |  | > 100 µM |  | > 100 µM |  | > 100 µM |  | > 100 µM |  | > 100 µM |  | > 100 µM |  | > 100 µM |  | > 100 µM |
| CC(Cl)CN1c2ccccc2Sc2ccc(Cl)cc21 (stereo not given) |  | > 10 µM |  | > 10 µM |  | > 10 µM |  | > 10 µM |  | > 10 µM |  | > 10 µM |  | > 10 µM |  | > 10 µM |  | > 10 µM |  | > 10 µM |
| Oc1ccc(N=Nc2nccs2)c(O)c1 | 10.4 µM | 30.7 µM | 3.58 µM | 34.3 µM | 2.85 µM | 14.9 µM | 3.1 µM | 20.3 µM | 5.11 µM | 54.4 µM | 3.46 µM | > 100 µM | 2.48 µM | 8.99 µM | 18.8 µM | 40.5 µM | 2.92 µM | 8.95 µM | 14 µM | 59.3 µM |
| CN1C(NNC(=O)c2cccnc2)=NS(=O)(=O)c2cc(Cl)ccc21 | > 100 µM | > 100 µM | > 100 µM | > 100 µM | > 100 µM | > 100 µM | > 100 µM | > 100 µM | > 100 µM | > 100 µM | > 100 µM | > 100 µM | > 100 µM | > 100 µM | > 100 µM | > 100 µM | > 100 µM | > 100 µM | > 100 µM | > 100 µM |
| O=C1C=CC(=CC=C2C=CN(CCCCCCCCCCC(=O)NCCCCCCCCCCCC(=O)O)C=C2)C=C1 |  | > 100 µM |  | > 100 µM |  | > 100 µM |  | > 100 µM |  | > 100 µM |  | > 100 µM |  | > 100 µM |  | > 100 µM |  | > 100 µM |  | > 100 µM |
| C[Si](C)(C)CN1C(=O)c2ccccc2C1(O)c1ccccc1 (stereo not given) |  | > 100 µM |  | > 100 µM |  | > 100 µM |  | > 100 µM |  | > 100 µM |  | > 100 µM |  | > 100 µM |  | > 100 µM |  | > 100 µM |  | > 100 µM |
| COc1ccc(-c2nn(-c3cccc(Cl)c3)cc2-c2nc(N)[nH]c(=O)c2C#N)cc1 | 4.98 µM | 27.9 µM | 3.45 µM | > 100 µM | 5.07 µM | > 100 µM | 4.8 µM | 39.8 µM | 5.13 µM | 50.8 µM | 7.71 µM | 61.9 µM | 3.65 µM | 33.8 µM | 1.47 µM | 6.75 µM | 4.35 µM | 16.2 µM | 13.5 µM | 53.9 µM |
| CC1COS(=O)O1 (stereo not given) |  | > 100 µM |  | > 100 µM |  | > 100 µM |  | > 100 µM |  | > 100 µM |  | > 100 µM |  | > 100 µM |  | > 100 µM |  | > 100 µM |  | > 100 µM |
| C1=NC(N(Cc2ccccc2)Cc2ccccc2)N(Cc2ccccc2)N1 (stereo not given) |  | 37.2 µM |  | 43.9 µM |  | 34.4 µM |  | > 100 µM |  | 37.3 µM |  | 36.7 µM |  | > 100 µM |  | 32.2 µM |  | 21.3 µM |  | 86.4 µM |
| O=C(CCN1CCOCC1)Nc1cccc(-n2cc(-c3ccncc3)c(-c3ccc(Cl)c(O)c3)n2)c1 | 1.53 µM | 3.33 µM | 1.76 µM | 11.4 µM | 1.24 µM | 10.8 µM | 2.65 µM | 11.9 µM | 3.75 µM | 16.1 µM | 3.07 µM | 17.7 µM | 3.43 µM | 15.9 µM | 1.52 µM | 5.48 µM | 3.04 µM | 12 µM | 8.18 µM | 20.7 µM |
